# According to patent US20260242419A1, “A CYCLIC PEPTIDE FOR TRAPPING INTERLEUKIN-1 BETA” (Merck Sharp & Dohme LLC, priority 2023, published 2026):
# Starred links: 1 amine or outer side, 2 acyl side, 3 side chain; linkers in the order of their positions; H or OH if unused. Non-standard residues stand in square brackets, D forms with d. Residues, ends and D or L forms follow the SMILES beside them. *: point of attachment. dPro(4R-(4-pyridylmethyl)) = O=C(O)[C@H]1C[C@@H](Cc2ccncc2)CN1; X17 = CN(C)C(=O)c1ccc(-c2ccc(C[C@H](N[*:1])C(=O)[*:2])cc2)cc1; Trp(βS-Me,4-F) = C[C@@H](c1c[nH]c2cccc(F)c12)[C@H](N)C(=O)O; Bip(4'-COOH) = N[C@@H](Cc1ccc(-c2ccc(C(=O)O)cc2)cc1)C(=O)O; Ala(1-bicyclo(1.1.1)pentyl) = N[C@@H](CC12CC(C1)C2)C(=O)O; Ala(pyrimidin-5-yl) = N[C@@H](Cc1cncnc1)C(=O)O; Phe(4-COOH) = N[C@@H](Cc1ccc(C(=O)O)cc1)C(=O)O; Bip = N[C@@H](Cc1ccc(-c2ccccc2)cc1)C(=O)O; Pro(cis-4-F) = O=C(O)[C@@H]1C[C@H](F)CN1; AEF = NCCOc1ccc(C[C@H](N)C(=O)O)cc1; d(αMeD) = C[C@@](N)(CC(=O)O)C(=O)O; 4Pal = N[C@@H](Cc1ccncc1)C(=O)O; Dab = NCC[C@H](N)C(=O)O; Aib = CC(C)(N)C(=O)O; X50 = O=C(c1ccncn1)*
# Target: T1, IL-1β (Homo sapiens, UniProt P01584)
# T1 construct: purchased BioLegend 579404
# Assay: IL-6 assay in MRC5 cells: inhibition of IL-1β induced IL-6 secretion (AlphaLISA)
# Assay type: cell-based
# Conditions: inhibition of IL-1β induced IL-6 secretion in MRC5 cells; compound pre-incubated 1 hour with recombinant human IL-1β; read-out: MRC5 IC50
# Protocol: Procedure for IL-6 Assay in MRC5 Cells
# The inhibition of IL-1β induced IL-6 secretion was evaluated in MRC5 cells. Recombinant human IL-1β (BioLegend 579404) at 2λ EC80 concentration was prepared in seeding medium. EMEM (ATCC 30-2003) with 0.025% BSA (Sigma A9576), 1×penicillin/streptomycin (Gibco 15070-063), 1×NEAA (Gibco 11140-050), 1×GlutaMax (Gibco 35050-061), and 1×sodium pyruvate (Gibco 11360-070), 20 μL of IL-1β was added to a 384-well collagen-coated plate (Corning 354664) and pre-incubated at ambient temperature for 1 hour with 200 nL of compound dispensed using an ECHO 555 liquid handler. Human lung fibroblast MRC5 cells (ATCC CCL-171) were added at a density of 3000 cells/20 μL per well. The cells were prepared by passaging three times in growth medium, EMEM (ATCC 30-2003) with 10% fetal bovine serum (Gibco 16140-071), 1×penicillin/streptomycin (Gibco 15070-063), 1×NEAA (Gibco 11140-050), 1×GlutaMax (Gibco 35050-061), and 1×sodium pyruvate (Gibco 11360-070) in collagen-coated T175 flasks (Greiner 661950) and harvested in seeding medium after 5 minutes of 0.25% trypsin-EDTA (Gibco 25200-056) digestion. The 384-well collagen-coated plate, containing a final volume of 40 μL, was incubated at 37° C., 5% CO2 overnight. 5 μL of the conditioned medium was transferred to a 384-well AlphaLISA plate (PerkinElmer 6005350) for detection of IL-6 using the human AlphaLISA IL-6 kit (PerkinElmer AL223F) as per the manufacturer's protocol. 20 μL of the acceptor bead/biotinylated antibody mix was added to the 384-well AlphaLISA plate and incubated for 1 hour at ambient temperature. The donor bead mix was protected from light and 25 μL was added to the plate and incubated for 30 minutes at ambient temperature. The AlphaLISA plate was read on an EnVision multimode plate reader (Perkin Elmer model 2104) using the AlphaScreen setting (laser exc at 680 nm and emis at […]). Dose response curves and IC50 values were analyzed using a 4-parameter logistic equation in Spotfire software (Tibco, Palo Alto, CA).
# T1 sequence (P01584 117-269): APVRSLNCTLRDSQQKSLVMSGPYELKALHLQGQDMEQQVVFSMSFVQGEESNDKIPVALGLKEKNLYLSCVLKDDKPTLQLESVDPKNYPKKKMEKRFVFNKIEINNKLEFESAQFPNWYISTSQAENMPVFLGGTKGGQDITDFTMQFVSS
row,IC50,Structure (SMILES)
1,19 pM,"C[C@@H](c1c[nH]c2cccc(F)c12)[C@@H]1NC(=O)[C@@H]2C[C@H](F)CN2C(=O)CNC(=O)[C@H](Cc2ccc(C(=O)O)cc2)NC(=O)[C@H](Cc2ccncc2)NC(=O)[C@H](Cc2ccc(-c3ccc(C(=O)O)cc3)cc2)NC(=O)[C@H]2C[C@@H](Cc3ccncc3)CN2C(=O)CNC(=O)[C@H](CCN)NC(=O)[C@H](CCC(N)=O)NC(=O)[C@@H](CO)NC(=O)[C@@](C)(CC(=O)O)NC(=O)[C@H](Cc2c[nH]c3ccccc23)NC(=O)[C@H](CO)NC(=O)C(C)(C)NC1=O [Example 242] (cyclo([Bip(4'-COOH)][4Pal][Phe(4-COOH)]G[Pro(cis-4-F)][Trp(βS-Me,4-F)][Aib]SW[d(αMeD)][dS]Q[Dab]G[dPro(4R-(4-pyridylmethyl))]))"
2,16 pM,"C[C@@H](c1c[nH]c2cccc(F)c12)[C@@H]1NC(=O)[C@@H]2C[C@H](F)CN2C(=O)CNC(=O)[C@H](Cc2ccc(C(=O)O)cc2)NC(=O)[C@H](Cc2ccncc2)NC(=O)[C@H](Cc2ccc(-c3ccccc3)cc2)NC(=O)[C@H]2C[C@@H](Cc3ccncc3)CN2C(=O)CNC(=O)[C@H](CCN)NC(=O)[C@H](CCC(N)=O)NC(=O)[C@@H](CCC(=O)O)NC(=O)[C@@](C)(CC(=O)O)NC(=O)[C@H](Cc2c[nH]c3ccccc23)NC(=O)[C@H](CO)NC(=O)C(C)(C)NC1=O [Example 249] (cyclo([Bip][4Pal][Phe(4-COOH)]G[Pro(cis-4-F)][Trp(βS-Me,4-F)][Aib]SW[d(αMeD)][dE]Q[Dab]G[dPro(4R-(4-pyridylmethyl))]))"

# Same assay, conditions: inhibition of IL-1β induced IL-6 secretion in MRC5 cells; read-out: MRC5 IC50
row,IC50,Structure (SMILES)
1,16 pM,"C[C@@H](c1c[nH]c2cccc(F)c12)[C@@H]1NC(=O)[C@@H]2C[C@H](F)CN2C(=O)CNC(=O)[C@H](Cc2ccc(C(=O)O)cc2)NC(=O)[C@H](Cc2ccncc2)NC(=O)[C@H](Cc2ccc(OCCNC(=O)c3ccncn3)cc2)NC(=O)[C@H]2C[C@@H](Cc3ccncc3)CN2C(=O)CNC(=O)[C@H](CCN)NC(=O)[C@H](CCC(N)=O)NC(=O)[C@H](Cc2cncnc2)NC(=O)C(C)(C)NC(=O)[C@H](Cc2c[nH]c3ccccc23)NC(=O)[C@H](CO)NC(=O)C(C)(C)NC1=O [Example 305] (cyclo([AEF](X50)[4Pal][Phe(4-COOH)]G[Pro(cis-4-F)][Trp(βS-Me,4-F)][Aib]SW[Aib][Ala(pyrimidin-5-yl)]Q[Dab]G[dPro(4R-(4-pyridylmethyl))]))"
2,35 pM,"C[C@@H](c1c[nH]c2cccc(F)c12)[C@@H]1NC(=O)[C@@H]2C[C@H](F)CN2C(=O)CNC(=O)[C@H](Cc2ccc(C(=O)O)cc2)NC(=O)[C@H](Cc2ccncc2)NC(=O)[C@H](Cc2ccc(-c3ccc(C(=O)O)cc3)cc2)NC(=O)[C@H]2C[C@@H](Cc3ccncc3)CN2C(=O)CNC(=O)[C@H](CCN)NC(=O)[C@H](CCC(N)=O)NC(=O)[C@H](Cc2cncnc2)NC(=O)C(C)(C)NC(=O)[C@H](Cc2c[nH]c3ccccc23)NC(=O)[C@H](CCC(=O)O)NC(=O)C(C)(C)NC1=O [Example 14] (cyclo([Bip(4'-COOH)][4Pal][Phe(4-COOH)]G[Pro(cis-4-F)][Trp(βS-Me,4-F)][Aib]EW[Aib][Ala(pyrimidin-5-yl)]Q[Dab]G[dPro(4R-(4-pyridylmethyl))]))"
3,24 pM,"C[C@@H](c1c[nH]c2cccc(F)c12)[C@@H]1NC(=O)[C@@H]2C[C@H](F)CN2C(=O)CNC(=O)[C@H](Cc2ccc(C(=O)O)cc2)NC(=O)[C@H](CC23CC(C2)C3)NC(=O)[C@H](Cc2ccc(-c3ccc(C(=O)N(C)C)cc3)cc2)NC(=O)[C@H]2C[C@@H](Cc3ccncc3)CN2C(=O)CNC(=O)[C@H](CCN)NC(=O)[C@H](CCC(N)=O)NC(=O)[C@H](Cc2cncnc2)NC(=O)[C@@](C)(CC(=O)O)NC(=O)[C@H](Cc2c[nH]c3ccccc23)NC(=O)[C@H](CO)NC(=O)C(C)(C)NC1=O [Example 341] (cyclo([X17][Ala(1-bicyclo(1.1.1)pentyl)][Phe(4-COOH)]G[Pro(cis-4-F)][Trp(βS-Me,4-F)][Aib]SW[d(αMeD)][Ala(pyrimidin-5-yl)]Q[Dab]G[dPro(4R-(4-pyridylmethyl))]))"
